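Five compound concentrations were applied to cells in 96-well plates for 48 hours; endpoints were derived by simple linear interpolation of the resulting dose-response curve. The concentration for 50% growth inhibition is given as GI50. TGI: total growth inhibition.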
Experiments:
Assay in all cases: NCI anticancer screen, dose series, 48 h
T-47D breast = tested on: T-47D breast
SN12C renal = tested on: SN12C renal
NCI-H522 lung = tested on: NCI-H522 lung
SNB-75 CNS = tested on: SNB-75 CNS
OVCAR-4 ovarian = tested on: OVCAR-4 ovarian
U251 CNS = tested on: U251 CNS
PC-3 prostate = tested on: PC-3 prostate
SK-MEL-28 melanoma = tested on: SK-MEL-28 melanoma
KM12 colon = tested on: KM12 colon
HS 578T breast = tested on: HS 578T breast
A549 NSCLC = tested on: A549 NSCLC
MDA-MB-231 breast = tested on: MDA-MB-231 breast
HCC-2998 colon = tested on: HCC-2998 colon
SF-268 CNS = tested on: SF-268 CNS
MALME-3M melanoma = tested on: MALME-3M melanoma
NCI/ADR-RES ovarian = tested on: NCI/ADR-RES ovarian
SNB-19 CNS = tested on: SNB-19 CNS
786-0 renal = tested on: 786-0 renal
EKVX NSCLC = tested on: EKVX NSCLC
OVCAR-8 ovarian = tested on: OVCAR-8 ovarian
UACC-62 melanoma = tested on: UACC-62 melanoma
DU-145 prostate = tested on: DU-145 prostate
ACHN renal = tested on: ACHN renal
IGROV1 ovarian = tested on: IGROV1 ovarian
HOP-92 NSCLC = tested on: HOP-92 NSCLC
NCI-H23 lung = tested on: NCI-H23 lung
SK-MEL-5 melanoma = tested on: SK-MEL-5 melanoma
NCI-H460 lung = tested on: NCI-H460 lung
CAKI-1 renal = tested on: CAKI-1 renal
A498 renal = tested on: A498 renal
SF-295 CNS = tested on: SF-295 CNS
OVCAR-5 ovarian = tested on: OVCAR-5 ovarian
SF-539 CNS = tested on: SF-539 CNS
SW-620 colon = tested on: SW-620 colon
BT-549 breast = tested on: BT-549 breast
MCF7 breast = tested on: MCF7 breast
HL-60(TB) leukemia = tested on: HL-60(TB) leukemia
LOX IMVI melanoma = tested on: LOX IMVI melanoma
CCRF-CEM leukemia = tested on: CCRF-CEM leukemia
HOP-62 NSCLC = tested on: HOP-62 NSCLC
UACC-257 melanoma = tested on: UACC-257 melanoma
NCI-H226 lung = tested on: NCI-H226 lung
RPMI-8226 leukemia = tested on: RPMI-8226 leukemia
MDA-MB-435 = tested on: MDA-MB-435
HCT-116 colon = tested on: HCT-116 colon
HT29 colon = tested on: HT29 colon
UO-31 renal = tested on: UO-31 renal
M14 melanoma = tested on: M14 melanoma
RXF 393 renal = tested on: RXF 393 renal
TK-10 renal = tested on: TK-10 renal
COLO 205 colon = tested on: COLO 205 colon
HCT-15 colon = tested on: HCT-15 colon
K-562 leukemia = tested on: K-562 leukemia
SR leukemia = tested on: SR leukemia
OVCAR-3 ovarian = tested on: OVCAR-3 ovarian
SK-MEL-2 melanoma = tested on: SK-MEL-2 melanoma

With `CCc1ccc2c(c1)C(=O)c1c-2n(CCCBr)c(=O)c2cc([N+](=O)[O-])ccc12` the GI50 (T-47D breast) was > 50 µM, the TGI (T-47D breast) was > 50 µM and the GI50 (SN12C renal) was > 50 µM. The TGI (SN12C renal) was > 50 µM, the GI50 (NCI-H522 lung) was 45.9 µM and the TGI (NCI-H522 lung) was > 50 µM. It also gave a GI50 (SNB-75 CNS) of 7.88 µM, a TGI (SNB-75 CNS) of 19.9 µM and a GI50 (OVCAR-4 ovarian) of 48.1 µM. The TGI (OVCAR-4 ovarian) was > 50 µM, the GI50 (U251 CNS) was 26 µM and the TGI (U251 CNS) was > 50 µM. The GI50 (PC-3 prostate) was > 50 µM, the TGI (PC-3 prostate) was > 50 µM and the GI50 (SK-MEL-28 melanoma) was > 50 µM. The TGI (SK-MEL-28 melanoma) was > 50 µM, the GI50 (KM12 colon) was > 50 µM and the TGI (KM12 colon) was > 50 µM. The GI50 (HS 578T breast) was 18.2 µM, the TGI (HS 578T breast) was > 50 µM and the GI50 (A549 NSCLC) was > 50 µM. For the same compound, the TGI (A549 NSCLC) was > 50 µM, the GI50 (MDA-MB-231 breast) was 45.7 µM and the TGI (MDA-MB-231 breast) was > 50 µM. The GI50 (HCC-2998 colon) was > 50 µM, the TGI (HCC-2998 colon) was > 50 µM and the GI50 (SF-268 CNS) was 15.9 µM. For the same compound, the TGI (SF-268 CNS) was > 50 µM, the GI50 (MALME-3M melanoma) was 18.5 µM and the TGI (MALME-3M melanoma) was > 50 µM. The GI50 (NCI/ADR-RES ovarian) was > 50 µM, the TGI (NCI/ADR-RES ovarian) was > 50 µM and the GI50 (SNB-19 CNS) was 30.8 µM. The TGI (SNB-19 CNS) was > 50 µM, the GI50 (786-0 renal) was 23.4 µM and the TGI (786-0 renal) was > 50 µM. For the same compound, the GI50 (EKVX NSCLC) was > 50 µM, the TGI (EKVX NSCLC) was > 50 µM and the GI50 (OVCAR-8 ovarian) was > 50 µM. For the same compound, the TGI (OVCAR-8 ovarian) was > 50 µM, the GI50 (UACC-62 melanoma) was 32.2 µM and the TGI (UACC-62 melanoma) was > 50 µM. For the same compound, the GI50 (DU-145 prostate) was > 50 µM, the TGI (DU-145 prostate) was > 50 µM and the GI50 (ACHN renal) was > 50 µM. The TGI (ACHN renal) was > 50 µM, the GI50 (IGROV1 ovarian) was 27.9 µM and the TGI (IGROV1 ovarian) was > 50 µM. The GI50 (HOP-92 NSCLC) was 16 µM, the TGI (HOP-92 NSCLC) was > 50 µM and the GI50 (NCI-H23 lung) was > 50 µM. The TGI (NCI-H23 lung) was > 50 µM, the GI50 (SK-MEL-5 melanoma) was > 50 µM and the TGI (SK-MEL-5 melanoma) was > 50 µM. The GI50 (NCI-H460 lung) was > 50 µM, the TGI (NCI-H460 lung) was > 50 µM and the GI50 (CAKI-1 renal) was > 50 µM. For the same compound, the TGI (CAKI-1 renal) was > 50 µM, the GI50 (A498 renal) was > 50 µM and the TGI (A498 renal) was > 50 µM. For the same compound, the GI50 (SF-295 CNS) was 36.5 µM, the TGI (SF-295 CNS) was > 50 µM and the GI50 (OVCAR-5 ovarian) was > 50 µM. For the same compound, the TGI (OVCAR-5 ovarian) was > 50 µM, the GI50 (SF-539 CNS) was 28.4 µM and the TGI (SF-539 CNS) was > 50 µM. The GI50 (SW-620 colon) was > 50 µM, the TGI (SW-620 colon) was > 50 µM and the GI50 (BT-549 breast) was > 50 µM. The TGI (BT-549 breast) was > 50 µM, the GI50 (MCF7 breast) was 19.9 µM and the TGI (MCF7 breast) was > 50 µM. The GI50 (HL-60(TB) leukemia) was > 50 µM, the TGI (HL-60(TB) leukemia) was > 50 µM and the GI50 (LOX IMVI melanoma) was > 50 µM. For the same compound, the TGI (LOX IMVI melanoma) was > 50 µM, the GI50 (CCRF-CEM leukemia) was > 50 µM and the TGI (CCRF-CEM leukemia) was > 50 µM. For the same compound, the GI50 (HOP-62 NSCLC) was 21.3 µM, the TGI (HOP-62 NSCLC) was > 50 µM and the GI50 (UACC-257 melanoma) was > 50 µM. The TGI (UACC-257 melanoma) was > 50 µM, the GI50 (NCI-H226 lung) was 27.7 µM and the TGI (NCI-H226 lung) was > 50 µM. For the same compound, the GI50 (RPMI-8226 leukemia) was > 50 µM, the TGI (RPMI-8226 leukemia) was > 50 µM and the GI50 (MDA-MB-435) was > 50 µM. The TGI (MDA-MB-435) was > 50 µM, the GI50 (HCT-116 colon) was > 50 µM and the TGI (HCT-116 colon) was > 50 µM. For the same compound, the GI50 (HT29 colon) was > 50 µM, the TGI (HT29 colon) was > 50 µM and the GI50 (UO-31 renal) was > 50 µM. The TGI (UO-31 renal) was > 50 µM, the GI50 (M14 melanoma) was > 50 µM and the TGI (M14 melanoma) was > 50 µM. For the same compound, the GI50 (RXF 393 renal) was 21.8 µM, the TGI (RXF 393 renal) was > 50 µM and the GI50 (TK-10 renal) was 15 µM. The TGI (TK-10 renal) was > 50 µM, the GI50 (COLO 205 colon) was > 50 µM and the TGI (COLO 205 colon) was > 50 µM. For the same compound, the GI50 (HCT-15 colon) was > 50 µM, the TGI (HCT-15 colon) was > 50 µM and the GI50 (K-562 leukemia) was > 50 µM. For the same compound, the TGI (K-562 leukemia) was > 50 µM, the GI50 (SR leukemia) was 19.1 µM and the TGI (SR leukemia) was > 50 µM. For the same compound, the GI50 (OVCAR-3 ovarian) was > 50 µM, the TGI (OVCAR-3 ovarian) was > 50 µM and the GI50 (SK-MEL-2 melanoma) was 31.9 µM. The TGI (SK-MEL-2 melanoma) was > 50 µM.

Source: PubChem BioAssay (NCI)
